Assay: Dissolved amount in water (Test Example 1)
Assay type: physicochemical
Conditions: 5 mg sample in 1 mL water, shaken, supernatant measured by HPLC
Protocol: Each of the above-prepared Formulation 1 and the solid dispersions of Formulations 2 to 6 was separately dispersed in water. Sampling from each solution was performed at 15, 30, and 60 minutes after dispersion, and the concentration of ((1S)-1-((((1S)-1-benzyl-2,3-dioxo-3-(cyclopropylamino)propyl)amino) carbonyl)-3-methylbutyl)carbamic acid 5-methoxy-3-oxapentyl ester was measured according to the procedure shown below.
To 5 mg of each of the above-prepared Formulation 1 and the solid dispersions of Formulations 2 to 6, 1 mL of water was added and the mixture was shaken with a shaker (Labindustries Inc., Labquake Shaker L1237). Shaking was stopped when the predetermined sampling time elapsed, and centrifugation at 13000 rpm was immediately performed at 25° C. for 5 minutes with a centrifugal separator (Kendro Lab Products, Sorvall Biofuge Fresco) to give a supernatant. A sample solution was prepared by mixing 0.5 mL of methanol to 0.5 mL of the supernatant and then measured for concentration of ((1S)-1-((((1S)-1-benzyl-2,3-dioxo-3-(cyclopropylamino)propyl)amino)carbonyl)-3-methylbutyl) carbamic acid 5-methoxy-3-oxapentyl ester by HPLC (Shimadzu, 10A-VP system).
Detector: ultraviolet absorptiometer (detection wavelength: 252 nm)
Column: YMC-Pack ODS-A (inside diameter: 4.6 mm, length: 250 mm, particle diameter: 5 μm, YMC)
Column temperature: constant temperature at around 40° C. […]

dissolved amount in water: 0.45 mg/mL
Compound: COCCOCCOC(=O)N[C@@H](CC(C)C)C(=O)N[C@@H](Cc1ccccc1)C(=O)C(=O)NC1CC1 [((1S)-1-((((1S)-1-benzyl-2,3-dioxo-3-(cyclopropylamino)propyl)amino)carbonyl)-3-methylbutyl)carbamic acid 5-methoxy-3-oxapentyl ester]

— patent US8697746B2, “Solid dispersion of alpha-ketoamide derivatives” (Senju Pharmaceutical Co., Ltd., priority 2010, dated 2014)
